Reference: patent US4968819A, “Process for the preparation of chromene derivatives” (Alkaloida Vegyeszeti Gyar, priority 1983, dated 1990)
Entries after “also recorded” stand apart in the source; their conditions may differ. Where two headings read alike, the source gives them in different places.

Assays:
[1] = pK by potentiometrical titration; assay type: physicochemical; conditions: 7-OH
Excerpt: (§1) This difference can be strengthened by deliberate direction of the reaction conditions to such an extent that selective mono-O-substitution can be carried out with excellent yields. It has been confirmed by various measurements and calculations (PMR, CMR, UV-VLS spectrophotometrical and potentiometric acid-base titrations, pK determinations, "all valence" CNDO quantumchemical calculations. electrostatical potential map calculation) that the hydroxy group in position 7 is the most reactive while the hydroxy groups in positions 5, 6 and 8, respectively, are less reactive.
(1.) is determined by potentiometrical titration and […]

[2] = pK by spectrophotometrical measurement; assay type: physicochemical; conditions: for pK7 (2.): 7-OH; for pKX (2.): second OH, X = 5, 6 or 8
Excerpt: as §1
(2.) according to spectrophotometrical measurement).

Caenorhabditis elegans = Caenorhabditis elegans test (treated NGM agar plate, young adults); assay type: in vivo
Description: (5) Caenorhabditis elegans 0.5 ml of the acetonous solution of the test compound is applied onto a NGM agar plate free from bacteria in a Petri dish. After the acetone has dried 25-30 young adults are placed on the plate. After 24 hours the surviving and killed insects are counted.

[3] = test system: cotton bug (Dysdercus fasciatus); assay: Cotton bug test (topical application on II. stage larvae); assay type: in vivo; conditions: for AJH effect: adultoid symptoms
Description: (1) Cotton bug test A dilution series is prepared from the test compound with acetone and 0.2 μl of each dilution is topically applied onto the back part of larvae of the II. stage of growth with the aid of a Hamiltion syringe. The active ingredient is absorbed through the cuticula. The animals are kept in a large glass and fed with cotton grains and water. After adult shedding the surviving insects are observed for eventual adultoid symptoms, the egg-reproduction and the development of the ovules is evaluated too. (Remark: in the cotton bug test 50 insects are used).

[4] = test system: tomato root gall nematode (Meloidogyne incognita); assay: Tomato root gall nematode test (II. stage infective larvae, treated NGM agar plate); assay type: in vivo; conditions: 72 hours; for mortality at 200 µg/mL / mortality at 400 µg/mL: Meloidogyne incognita
Description: (6) Root gall nematode The test is carried out on II. stage infective larvae, which are collected from the root of tomato plant, placed on a filter and incubated in sterile water at 25° C. The hatched larvae are collected every 24 hours and immediately placed onto the treated nutrient medium. As nutrient medium NGM agar plate free from bacterial is used. 0.5 ml of the acetoneous solution of the test compound is applied onto the surface of the plate in a Petri-dish. After the acetone has evaporated 5 μl of the larva suspension is applied onto each plate. After 72 hours the surviving and killed insects are counted.

insects = conditions: compared with P2; listed as P3; cited from earlier work
[5] = test system: cabbage butterfly (Pieris brassicae); assay: Cabbage butterfly test (sprayed cabbage seedlings); assay type: in vivo; conditions: Pieris brassicae; 50 EC, 0.1%; read-out: Killing rate of larvae
Description: From the 50 EC of the test compound a diluted series is prepared with water and the host seedlings (cabbage) are sprayed with this composition until the spray runs down. The spray is allowed to dry whereupon 20 young larvae of the II. stage are placed on each treated plant and the seedlings are kept under so-called "long-day" illumination (18 hours of illumination and 6 hours of darkness). The nibbled plants are replaced by similarly sprayed plants if necessary. The killing rate of the insects, the growth rate of the larvae and the morphological deformations of the surviving nymphs and adults are registered.
In the 50 EC compositions the concentration of compounds 23 and 25 amounts to 0.01% and that of the other compounds to 0.1%.

[6] = test system: domestic fly (Musca domestica); assay: Domestic fly test (larvae in treated nutrient medium); assay type: in vivo; conditions: 0.1% related to milk, 0.05% related to total nutrient medium
Description: The fly larvae are grown on a nutrient medium of the following composition: 2 ml of milk; 2 ml of water; 2 g of wheat bran; 0.1 ml of saturated alcoholic nipagin solution.
The nutrient medium is filled into cylindrical glass vials (30×100 mm) and 25 fly larvae are raised in each vial. The test compound is dissolved in milk; the end concentration (related to milk) amounts to 0.1% which corresponds to 0.05% (related to the total nutrient medium). The solution of the active ingredient is admixed with the nutrient medium whereupon […] of domestic fly larvae of the I. stage are placed into each vial and the vials are closed with a hard cotton-wool stopper. The nymphs emerging from the larvae are collected in each vial, counted and kept in a Petri dish (diameter 25 mm) until flies hatch from the nymphs. The hatched flies are counted.

mustard beetle = assay: Mustard beetle test (sprayed mustard seedlings); assay type: in vivo; conditions: concentration 1%
Description: Two weeks' old mustard seedlings are sprayed with a solution of 0.1 g of the test compound, 0.5 ml of dimethyl sulfoxide, and 10 μl of 50 EC composition in 10 ml of water. After the spray is dried, 20 mustard larvae of the II. stage are placed on each plant. The sprayed plants are charged every second day. The evaluation is based on the number of the imagos hatching from the nymphs.

[7] = 200 μg/ml, first test, read-out: mortality 1.
[8] = 200 μg/ml, second test, read-out: mortality 2.
[9] = 200 μg/ml, read-out: mortality Average
[10] = 400 μg/ml, first test, read-out: mortality 1.
[11] = 400 μg/ml, second test, read-out: mortality 2.
[12] = 400 μg/ml, read-out: mortality Average

What does the source list for `CC1(C)CC(=O)c2c(O)cc(O)cc2O1` [5-OH 7-OH 4-OH, 5,7-dihydroxy-2,2-dimethyl-4-chromanone]?
pK7 (1.) [1]: 7.4; pK7 (2.) [2]: 7.0; pKX (2.) [2]: 11.6

With `CC1(C)CC(=O)c2cc(O)c(O)cc2O1` [6-OH 7-OH 4-H, 6,7-dihydroxy-2,2-dimethyl-4-chromanone] as the compound, how does the “pK7 (1.)” value [1] read?
Its value is 6.8.

What about the “pK7 (2.)” value [2] of the same compound?
The value was 6.9.

What about the “pKX (2.)” value [2] of the same compound?
Its value is 11.4.

Which results are given for `CC1(C)CC(=O)c2ccc(O)c(O)c2O1` [8-OH 7-OH 4-H, 7,8-dihydroxy-2,2-dimethyl-4-chromanone]?
pK7 (1.) [1]: 7.2; pK7 (2.) [2]: 7.2; pKX (2.) [2]: 11.6

For `COc1cc2c(cc1OC)OC(C)(C)C=C2` [Compound 1, 6,7-dimethoxy-2,2-dimethyl-2H-chromene, reference compound], which “Size of descendant population” value (Caenorhabditis elegans; 200 μg/ml) is on record?
Its value is “no descendants”.

What about the “Size of descendant population” value (Caenorhabditis elegans; 400 μg/ml) of the same compound?
The value was “no descendants”.

And the LD50 [3]?
The LD50 was 0.6 μg/insect.

And the Sterilizing effect [3]?
Its Sterilizing effect is 10 μg/insect.

What about the AJH effect [3] of the same compound?
The AJH effect was 1 μg/insect.

What about the Nematocidal effect ([4]; 200 μg/ml) of the same compound?
Its Nematocidal effect is “strong”.

What about the Nematocidal effect ([4]; 400 μg/ml) of the same compound?
The Nematocidal effect was “strong”.

And the mortality at 200 µg/mL [4, 7]?
Its mortality at 200 µg/mL is 76%.

And the mortality at 200 µg/mL [4, 8]?
The mortality at 200 µg/mL was 76%.

And the mortality at 200 µg/mL [4, 9]?
Its mortality at 200 µg/mL is 76%.

And the mortality at 400 µg/mL [4, 10]?
Its mortality at 400 µg/mL is 98%.

And the mortality at 400 µg/mL [4, 11]?
The mortality at 400 µg/mL was 95%.

And the mortality at 400 µg/mL [4, 12]?
Its mortality at 400 µg/mL is 97%.

Which “Size of descendant population” value (Caenorhabditis elegans; 200 μg/ml) does the source give for `CCOc1cc2c(cc1OC)C=CC(C)(C)O2` [Compound 3, 6-methoxy-7-ethoxy-2,2-dimethyl-2H-chromene, reference compound] here?
The value was “some descendants”.

And the “Size of descendant population” value (Caenorhabditis elegans; 400 μg/ml)?
Its value is “no descendants”.

And the LD50 [3]?
Its LD50 is 0.5 μg/insect.

And the Sterilizing effect [3]?
The Sterilizing effect was 10 μg/insect.

And the AJH effect [3]?
The AJH effect was 10 μg/insect.

And the “effectiveness/activity relative to P2” value (insects)?
Its value is “ten times more active; also recorded: ten times more effective”.

What about the Nematocidal effect ([4]; 400 μg/ml) of the same compound?
The Nematocidal effect was “strong”.

And the mortality at 200 µg/mL [4, 7]?
The mortality at 200 µg/mL was 24%.

What about the mortality at 200 µg/mL [4, 8] of the same compound?
The mortality at 200 µg/mL was 20%.

And the mortality at 200 µg/mL [4, 9]?
Its mortality at 200 µg/mL is 22%.

And the mortality at 400 µg/mL [4, 10]?
The mortality at 400 µg/mL was 100%.

And the mortality at 400 µg/mL [4, 11]?
Its mortality at 400 µg/mL is 95%.

And the mortality at 400 µg/mL [4, 12]?
Its mortality at 400 µg/mL is 97%.

What does the source list for `Cc1cc(OCC(C)C)cc2c1C=CC(C)(C)O2` [Compound 42]?
pest or weed control at 0.1 % [5]: 100%; Survival adult [6]: 25.5%; Survival nymph [6]: 45.4%; Survival, adults (mustard beetle): 27%

Which pest or weed control at 0.1 % [5] does the source give for `CCCOc1ccc2c(c1OC)OC(C)(C)C=C2` [Compound 51] here?
Its pest or weed control at 0.1 % is 100%.

What about the Survival adult [6] of the same compound?
The Survival adult was 0%.

And the Survival nymph [6]?
Its Survival nymph is 12%.

And the “Survival, adults” value (mustard beetle)?
Its value is 45%.
